From patent publication US11230538B2, “Herbicides” (SYNGENTA PARTICIPATIONS AG, priority 2016, dated 2022)

Assays:
Assay type in all cases: in vivo
[1] = test system: Echinochloa crus-galli (ECHCG); assay: B2 Post-emergence herbicidal activity; conditions: post-emergence application, evaluated after 13 days
Method: (§1) Seeds of a variety of test species were sown in standard soil in pots: Triticum aestivium (TRZAW), Avena fatua (AVEFA), Alopecurus myosuroides (ALOMY), Echinochloa crus-galli (ECHCG), Lolium perenne (LOLPE), Zea Mays (ZEAMX), Abutilon theophrasti (ABUTH), Amaranthus retroflexus (AMARE) and Setaria fabenri (SETFA). After 8 days cultivation (post-emergence) under controlled conditions in a glasshouse (at 24/16° C., day/night; 14 hours light; 65% humidity), the plants were sprayed with an aqueous spray solution derived from the formulation of the technical active ingredient in acetone I water (50:50) solution containing 0.5% Tween 20 (polyoxyethelyene sorbitan monolaurate, CAS RN 9005-64-5). The test plants were then grown in a glasshouse under controlled conditions (at 24/16° C., day/night; 14 hours light; 65% humidity) and watered twice daily. After 13 days, the test was evaluated (5=total damage to plant; 0=no damage to plant).

[2] = test system: Echinochloa crus-galli (ECHCG); assay: B1 Pre-emergence herbicidal activity; design: key to Pre-emergence herbicidal activity, ECHCG (damage score 0-5): 5=total damage to plant; 0=no damage to plant; conditions: pre-emergence application, evaluated after 13 days
Method: as §1, with “fabenr” for “fabenri”, “After” for “After 8 days”, “for one day (pre-emergence)” for “(post-emergence)”

[3] = test system: Setaria fabenr (SETFA); assay: B1 Pre-emergence herbicidal activity; design: key to Pre-emergence herbicidal activity, SETFA (damage score 0-5): 5=total damage to plant; 0=no damage to plant; conditions: pre-emergence application, evaluated after 13 days
Method: as §1, with “fabenr” for “fabenri”, “After” for “After 8 days”, “for one day (pre-emergence)” for “(post-emergence)”

[4] = test system: Lolium perenne (LOLPE); assay: B1 Pre-emergence herbicidal activity; design: key to Pre-emergence herbicidal activity, LOLPE (damage score 0-5): 5=total damage to plant; 0=no damage to plant; conditions: pre-emergence application, evaluated after 13 days
Method: as §1, with “fabenr” for “fabenri”, “After” for “After 8 days”, “for one day (pre-emergence)” for “(post-emergence)”

[5] = test system: Avena fatua (AVEFA); assay: B1 Pre-emergence herbicidal activity; design: key: 5=total damage to plant; 0=no damage to plant; conditions: pre-emergence application, evaluated after 13 days
Method: as §1, with “fabenr” for “fabenri”, “After” for “After 8 days”, “for one day (pre-emergence)” for “(post-emergence)”

[6] = test system: Triticum aestivium (TRZAW); assay: B1 Pre-emergence herbicidal activity; design: key: 5=total damage to plant; 0=no damage to plant; conditions: pre-emergence application, evaluated after 13 days
Method: as §1, with “fabenr” for “fabenri”, “After” for “After 8 days”, “for one day (pre-emergence)” for “(post-emergence)”

[7] = test system: Alopecurus myosuroides (ALOMY); assay: B1 Pre-emergence herbicidal activity; design: key: 5=total damage to plant; 0=no damage to plant; conditions: pre-emergence application, evaluated after 13 days
Method: as §1, with “fabenr” for “fabenri”, “After” for “After 8 days”, “for one day (pre-emergence)” for “(post-emergence)”

[8] = test system: Setaria fabenri (SETFA); assay: B2 Post-emergence herbicidal activity; design: key: 5=total damage to plant; 0=no damage to plant; conditions: post-emergence application, evaluated after 13 days
Method: as §1

[9] = test system: Triticum aestivium (TRZAW); assay: B2 Post-emergence herbicidal activity; design: key: 5=total damage to plant; 0=no damage to plant; conditions: post-emergence application, evaluated after 13 days
Method: as §1

[10] = test system: Alopecurus myosuroides (ALOMY); assay: B2 Post-emergence herbicidal activity; design: key: 5=total damage to plant; 0=no damage to plant; conditions: post-emergence application, evaluated after 13 days
Method: as §1

Row | SMILES | Post-emergence herbicidal activity, ECHCG (damage score 0-5) ([1]; rate 1000 g/ha) | Pre-emergence herbicidal activity, ECHCG (damage score 0-5) ([2]; rate 1000 g/ha) | Pre-emergence herbicidal activity, SETFA (damage score 0-5) ([3]; rate 1000 g/ha) | Pre-emergence herbicidal activity, LOLPE (damage score 0-5) ([4]; rate 1000 g/ha) | Pre-emergence herbicidal activity, AVEFA (damage score 0-5) ([5]; rate 1000 g/ha) | Pre-emergence herbicidal activity, TRAZW (damage score 0-5) ([6]; rate 1000 g/ha) | Pre-emergence herbicidal activity, ALOMY (damage score 0-5) ([7]; rate 1000 g/ha) | Post-emergence herbicidal activity, SETFA (damage score 0-5) ([8]; rate 1000 g/ha) | Post-emergence herbicidal activity, TRAZW (damage score 0-5) ([9]; rate 1000 g/ha) | Post-emergence herbicidal activity, ALOMY (damage score 0-5) ([10]; rate 1000 g/ha) | Post-emergence herbicidal activity, ECHCG (damage score 0-5) ([1]; rate 250 g/ha) | Pre-emergence herbicidal activity, ECHCG (damage score 0-5) ([2]; rate 250 g/ha) | Pre-emergence herbicidal activity, SETFA (damage score 0-5) ([3]; rate 250 g/ha) | Pre-emergence herbicidal activity, LOLPE (damage score 0-5) ([4]; rate 250 g/ha) | Pre-emergence herbicidal activity, AVEFA (damage score 0-5) ([5]; rate 250 g/ha) | Pre-emergence herbicidal activity, TRAZW (damage score 0-5) ([6]; rate 250 g/ha) | Pre-emergence herbicidal activity, ALOMY (damage score 0-5) ([7]; rate 250 g/ha) | Post-emergence herbicidal activity, SETFA (damage score 0-5) ([8]; rate 250 g/ha) | Post-emergence herbicidal activity, TRAZW (damage score 0-5) ([9]; rate 250 g/ha) | Post-emergence herbicidal activity, ALOMY (damage score 0-5) ([10]; rate 250 g/ha)
1 | CCC(=O)N(c1ccc(-c2cncc(F)c2)nc1C(F)(F)F)C(C)C [Compound C100] | 4 | 3 | 5 | 1 | 1 | 0 | 0 | 5 | 0 | 0 |  |  |  |  |  |  |  |  |  | 
2 | CCC(=O)N(Cc1ccc(Cl)cc1)c1ccc(-c2cncc(F)c2)nc1C(F)(F)F [Compound C101] | 2 | 1 | 1 | 0 | 1 | 0 | 0 | 2 | 0 | 0 |  |  |  |  |  |  |  |  |  | 
3 | CCC(=O)N(Cc1cnc(Cl)s1)c1ccc(-c2cncc(F)c2)nc1C(F)(F)F [Compound C102] | 2 | 2 | 4 | 0 | 1 | 0 | 0 | 2 | 0 | 0 |  |  |  |  |  |  |  |  |  | 
4 | CSCCN(C(=O)c1ccccc1)c1ccc(-c2cncc(F)c2)nc1C(F)(F)F [Compound C104] |  |  |  |  |  |  |  |  |  |  | 1 | 0 | 3 | 0 | 0 | 0 | 0 | 2 | 0 | 0
5 | COCC(=O)N(CC=C(C)C)c1ccc(-c2cncc(F)c2)nc1C(F)(F)F [Compound C106] | 4 | 3 | 4 | 1 | 2 | 0 | 0 | 5 | 0 | 0 |  |  |  |  |  |  |  |  |  | 
6 | CC(C)C(=O)N(CC(=O)N(C)C)c1ccc(-c2cncc(F)c2)nc1C(F)(F)F [Compound C107] | 4 | 3 | 5 | 0 | 1 | 0 | 0 | 5 | 0 | 0 |  |  |  |  |  |  |  |  |  | 
7 | CCC(=O)N(CC1CC1)c1ccc(-c2cncc(F)c2)nc1C(F)(F)F [Compound C108] | 3 | 2 | 5 | 1 | 1 | 0 | 0 | 4 | 0 | 0 |  |  |  |  |  |  |  |  |  | 
